Measurements as given in patent publication US7041701B2, “Triterpenoid derivatives” (Univerzita Palackeho V Olomouci, priority 2000, dated 2006).
Like-named read-outs stand apart in the source and are kept apart here.

Legend:
[1] = test system: CEM-DNR bulk human T-lymphoblastic leukemia, daunorubicin resistant; experiment: MTT cytotoxicity assay, CEM-DNR bulk; type: cell-based; details: Homo sapiens, 72 hours, read-out: TCS50
From the text: (§1) One of the parameters used as the basis for colorimetric assays is the metabolic activity of viable cells. For example, a microtiter assay which uses the tetrazolium salt MTT is now widely used to quantitate cell proliferation and cytotoxicity [Hajdúch M, Mihál V, Minarík J, Fáber E, Safárová M, Weigl E, Antálek P.: Cytotechnology, 1996, 19, 243–245]. For instance, this assay is used in drug screening programs and in chemosensitivity testing. Because tetrazolium salts are cleaved only by metabolically active cells, these assays exclusively detect viable cells. In the case of the MTT assay, yellow soluble tetrazolium salt is reduced to a coloured water-insoluble formazan salt. After it is solubilized, the formazan formed can easily and rapidly be quantified in a conventional ELISA plate reader at 570 nm (maximum absorbancy). The quantity of reduced formazan corresponds to the number of vital cells in the culture. […]
(§2) The cell suspensions that were prepared and diluted according to the particular cell type and the expected target cell density (2,500–30,000 cells per well based on cell growth characteristics) were added by pipette (80 μl) into 96/well microtiter plates. […] Usually, test compounds were evaluated at six 4-fold dilutions. […] The tumour cell survival (TCS) was calculated using the following equitation: TCS=(ODdrug exposed well/mean ODcontrol wells)×100%. […]

[2] = test system: K562-ARA-C human promyelocytic leukemia, cytarabin resistant; experiment: MTT cytotoxicity assay, K562-ARA-C; type: cell-based; details: Homo sapiens, 72 hours, read-out: TCS50
From the text: as §1, §2

[3] = test system: Caco-2 human colon cancer; experiment: MTT cytotoxicity assay, Caco-2; type: cell-based; details: Homo sapiens, 72 hours, read-out: TCS50
From the text: as §1, §2

[4] = test system: B16 mouse melanoma; experiment: MTT cytotoxicity assay, B16; type: cell-based; details: Mus musculus, 72 hours, read-out: TCS50
From the text: as §1, §2

[5] = test system: human normal lymphocytes; experiment: MTT cytotoxicity assay, normal lymphocytes; type: cell-based; details: Lymphocyte, 72 hours, read-out: TCS50
From the text: as §1, §2

[6] = test system: MEL-3 human melanoma; experiment: MTT cytotoxicity assay, MEL-3; type: cell-based; details: Homo sapiens, 72 hours, read-out: TCS50
From the text: as §1, §2

[7] = test system: SW620 human colon cancer, metastasis; experiment: MTT cytotoxicity assay, SW620; type: cell-based; details: Homo sapiens, SW-620, 72 hours, read-out: TCS50
From the text: as §1, §2

[8] = test system: BT549 human breast cancer, p53mut/mut; experiment: MTT cytotoxicity assay, BT549; type: cell-based; details: Homo sapiens, BT-549, 72 hours, read-out: TCS50
From the text: as §1, §2

[9] = test system: HepG2 human hepatocellular carcinoma; experiment: MTT cytotoxicity assay, HepG2; type: cell-based; details: Homo sapiens, 72 hours, read-out: TCS50
From the text: as §1, §2

[10] = test system: U2OS human osteosarcoma, p53+/−, Rb+/−; experiment: MTT cytotoxicity assay, U2OS; type: cell-based; details: Homo sapiens, 72 hours, read-out: TCS50
From the text: as §1, §2

[11] = test system: B16F mouse melanoma, metastatic; experiment: MTT cytotoxicity assay, B16F; type: cell-based; details: Mus musculus, 72 hours, read-out: TCS50
From the text: as §1, §2

[12] = test system: CEM-VCR 1/F3 human T-lymphoblastic leukemia, vincristin resistant; experiment: MTT cytotoxicity assay, CEM-VCR 1/F3; type: cell-based; details: Homo sapiens, 72 hours, read-out: TCS50
From the text: as §1, §2

[13] = test system: NIH3T3 mouse immortalised fibroblasts; experiment: MTT cytotoxicity assay, NIH3T3; type: cell-based; details: Mus musculus, 72 hours, read-out: TCS50
From the text: as §1, §2

[14] = test system: CEM-DNR 1/C2 human T-lymphoblastic leukemia, daunorubicin resistant; experiment: MTT cytotoxicity assay, CEM-DNR 1/C2; type: cell-based; details: Homo sapiens, 72 hours, read-out: TCS50
From the text: as §1, §2

[15] = test system: CEM human T-lymphoblastic leukemia; experiment: MTT cytotoxicity screening assay, CEM; type: cell-based
From the text: One of the parameters used as the basis for colorimetric assays is the metabolic activity of viable cells. For example, a microtiter assay which uses the tetrazolium salt MTT is now widely used to quantitate cell proliferation and cytotoxicity [Hajdúch M, Mihál V, Minarík J, Fáber E, Safárová M, Weigl E, Antálek P.: Cytotechnology, 1996, 19, 243–245]. For instance, this assay is used in drug screening programs and in chemosensitivity testing. Because tetrazolium salts are cleaved only by metabolically active cells, these assays exclusively detect viable cells. In the case of the MTT assay, yellow soluble tetrazolium salt is reduced to a coloured water-insoluble formazan salt. After it is solubilized, the formazan formed can easily and rapidly be quantified in a conventional ELISA plate reader at 570 nm (maximum absorbancy). The quantity of reduced formazan corresponds to the number of vital cells in the culture.
Human T-lymphoblastic leukaemia cell line CEM was used for routine screening of these compounds. […] The cells were maintained in Nunc/Corning 80 cm^2 plastic tissue culture flasks and cultured in cell culture medium (DMEM with 5 g/l glucose, 2 mM glutamine, 100 U/ml penicillin, 100 μg/ml streptomycin, 10% foetal calf serum and sodium bicarbonate). Individual compounds were dissolved in 10% diiethylsulfoxide/saline, pH 8.0.
The cell suspensions that were prepared and diluted according to the particular cell type and the expected target cell density (2,500–30,000 cells per well based on cell growth characteristics) were added by pipette (80 μl) into 96/well microtiter plates. Inoculates were allowed a pre-incubation period of 24 hours at 37° C. and 5% CO2 for stabilisation. Four-fold dilutions of the intended test concentration were added at time zero in 20 μl aliquots to the microtiter plate wells. Usually, test compounds were evaluated at six 4-fold dilutions. In routine testing, the highest well concentration was 250 μM, but it may differ, depending on the agent. All drug concentrations were examined in duplicate. Incubations of cells with the test compounds lasted for 72 hours at 37° C., in 5% CO2 atmosphere and 100% humidity. At the end of the incubation period, the cells were assayed by using the MTT assay. […] After this incubation period, formazan was solubilized by the addition of 100 μl/well of 10% SDS in water (pH=5.5) followed by further incubation at 37° C. overnight The optical density (OD) was measured at 540 nm with the Labsystem iEMS Reader MF(UK). The tumour cell survival (TCS) was calculated using the following equitation: TCS=(ODdrug exposed well/mean ODcontrol wells)×100%. The TCS50 value, the drug concentration lethal to 50% of the tumour cells, was calculated from the obtained dose response curves. […]

[16] = test system: CEM-VCR 3/D5 human T-lymphoblastic leukemia, vincristin resistant; experiment: MTT cytotoxicity assay, CEM-VCR 3/D5; type: cell-based; details: Homo sapiens, 72 hours, read-out: TCS50
From the text: as §1, §2

[17] = test system: Saos2 human, p53−/−, Rb−/−; experiment: MTT cytotoxicity assay, Saos2; type: cell-based; details: Homo sapiens, SAOS-2, 72 hours, read-out: TCS50
From the text: as §1, §2

[18] = test system: U87MG human glioblastoma; experiment: MTT cytotoxicity assay, U87MG; type: cell-based; details: Homo sapiens, U-87 MG, 72 hours, read-out: TCS50
From the text: as §1, §2

[19] = test system: CEM-VCR bulk human T-lymphoblastic leukemia, vincristin resistant; experiment: MTT cytotoxicity assay, CEM-VCR bulk; type: cell-based; details: Homo sapiens, 72 hours, read-out: TCS50
From the text: as §1, §2

[20] = test system: K562 human promyelocytic leukemia; experiment: MTT cytotoxicity assay, K562; type: cell-based; details: Homo sapiens, 72 hours, read-out: TCS50
From the text: as §1, §2

[21] = test system: K562-FLUD human promyelocytic leukemia, fludarabin resistant; experiment: MTT cytotoxicity assay, K562-FLUD; type: cell-based; details: Homo sapiens, 72 hours, read-out: TCS50
From the text: as §1, §2

[22] = test system: K562-GEM human promyelocytic leukemia, gemcitabin resistant; experiment: MTT cytotoxicity assay, K562-GEM; type: cell-based; details: Homo sapiens, 72 hours, read-out: TCS50
From the text: as §1, §2

[23] = test system: K562-CdA human promyelocytic leukemia, cladrubin resistant; experiment: MTT cytotoxicity assay, K562-CdA; type: cell-based; details: Homo sapiens, 72 hours, read-out: TCS50
From the text: as §1, §2

[24] = test system: HT-29 human colon cancer; experiment: MTT cytotoxicity assay, HT-29; type: cell-based; details: Homo sapiens, 72 hours, read-out: TCS50
From the text: as §1, §2

[25] = test system: H3 histone (Lys9); experiment: Histone acetylation, Western blot in CEM cells; type: cell-based, human
Method: CEM cells were cultured in Dulbeco's modified essential medium with 4.5 g dextrose/l, 10% of foetal calf serum, 2 mM glutamine, 100 U/ml penicillin and 100 μg/ml streptomycin with/without the indicated concentrations of HDAC inhibitor TSA or I.3. At selected time points, cells were harvested, washed in ice cold Hank's balanced salt solution and solubilized on ice using SDS-PAGE sample buffer containing protease and phosphatase inhibitors (10 μg/ml of leupeptin, 10 μg/ml of aprotinin, 10 μg/ml of soybean trypsin inhibitor, 100 μmol of benzamide, 1 mM of sodium vanadate, 1 mM of NaF, 1 mM of phenylphosphate) and boiled immediately.
Total cellular proteins (100 μg/well) were separated on SDS-PAGE electrophoresis, blotted on polyvinyldifluoride membranes and acetylated histone was detected using a anti-acetyl(Lys9)-histone H3 rabbit polyclonal antibody (Cell Signalling Technology, Beverly, Mass.; Cat# 9671L) and visualized by chemilumniuscence (ECL-Western Blotting System, Amersham). Details of the Western blot technique are described in Ausubel, F. M., Brent, R, Kingston, R. E., Moore, D. D., Seidman, J. G., Smith, J. A., Struhl, K. (Eds): Short Protocols in Molecular. Biology, 2nd edition, John Wiley & Sons, New York, Chichester, Brisbane, Toronto, Singapore, 1992, page 10–33–10–35.

[26] = test system: human SK-N-AS neuroblastoma; experiment: In vivo activity in xenotransplanted human neuroblastoma; design: species or system CD-1/Ctrl-1 nu/nu nude female mice; details: cisplatin 4 mg/kg subcutaneously 1×D1; SK-N-AS in nude mice (FIG. 2)
Method: Human neuroblastoma SK-N-AS cell line was obtained from ATTC. The line was cultured in Dulbeco's modified essential medium with 4.5 g dextrose/l, 10% of foetal calf serum, 2 mM glutamine, 100 U/ml penicillin and […] streptomycin. For transplantation purposes, only the cells in log phase were used.
CD-1/Ctrl-1 nu/nu nude female mice, 8 weeks old, 18–22 g weight were used in this study (IffaCredo, France). Animals were inoculated with 5.10^6 tumour cells subcutaneously into right inquinal region. Following transplantation, tumor growth was measured in both the control/vehicle and the treated groups using calipers. Tumor volume (TV) was calculated as follows: TV=(a^2×b)/2, where a is width and b is length The statistical significance was evaluated using a […].
Cisplatin (Platidiam 10 inj, sicc., Lachema, Czech Republic) was used as a control drug in this experiment. It was diluted in apyrogenic water and applied to animals in a final volume of 0.18 ml subcutaneously at day 1.
I.3 was synthesised as described above. It was suspended at 10 mg/ml in 5% dextrose and pH was adjusted to 8.0 with sodium hydroxide. vehicle: 5% dextrose with pH adjusted to 8.0 with sodium hydroxide. […]

C=C(C)[C@@H]1CC[C@]2(C(=O)O)CC[C@]3(C)[C@H](CC[C@@H]4[C@@]5(C)CC[C@H](O)C(C)(C)[C@@H]5CC[C@]43C)[C@@H]12 [Betulinic acid, betulinic acid, reference compound]
IC50 [1]: 250 µM | IC50 [2]: 250 µM | IC50 [3]: 20 µM | IC50 [4]: 36 µM | IC50 [5]: 250 µM | IC50 [6]: 2700 nM | IC50 [7]: 250 µM | IC50 [8]: 250 µM | IC50 [9]: 3.6 µM | IC50 [10]: 250 µM | IC50 [11]: 4.6 µM | IC50 [12]: 19 µM | IC50 [13]: 250 µM | IC50 [14]: 250 µM | IC50 ([15]; Homo sapiens, CEM, MTT assay, 72 hours, read-out: TCS50): 250 µM | IC50 [16]: 24 µM | IC50 [17]: 250 µM | IC50 [18]: 250 µM | IC50 [19]: 69 µM | IC50 [20]: 250 µM | IC50 [21]: 250 µM | IC50 [22]: 101 µM | IC50 [23]: 250 µM | IC50 [24]: 250 µM

CC(/C=C/C(=O)NO)=C\[C@@H](C)C(=O)c1ccc(N(C)C)cc1 [TSA, trichostatin A, reference compound]
increase of histone acetylation ([25]; 0.24 μM (IC50)): no significant ability to increase histone acetylation | acetylation of H3 histone in Lys9 position ([25]; Western blot (FIG. 5)): rapidly acetylated | IC50 ([15]; CEM cells, as stated in the histone acetylation study, read-out: IC50): 0.24 µM

N.N.[Cl][Pt][Cl] [cisplatin, Cisplatin, reference compound]
tumor growth (tumor volume) [26]: no significant activity
